Source: ChEMBL document CHEMBL1131330, “d-Fused [1]benzazepines with selective in vitro antitumor activity: synthesis and structure-activity relationships” (1998)

Assays:
Assay type in all cases: functional
786-0 [1] = experiment: Compound was tested for antitumor activity against 786-0 renal cancer cell line(molar concentration leading to 50% net cell death); conditions: Homo sapiens, read-out: Log LC50 (the source's name) (converted)
786-0 [2] = experiment: Compound was tested for antitumor activity against 786-0 renal cancer cell line(molar concentration that inhibits 50% net cell growth).; conditions: Homo sapiens
TK-10 [3] = experiment: Compound was tested for antitumor activity against TK-10 renal cancer cell line(molar concentration leading to 50% net cell death); conditions: Homo sapiens
TK-10 [4] = experiment: Compound was tested for antitumor activity against TK-10 renal cancer cell line(molar concentration that inhibits 50% net cell growth); conditions: Homo sapiens
ACHN [5] = experiment: Compound was tested for antitumor activity against ACHN renal cancer cell line(molar concentration that inhibits 50% net cell growth).; conditions: Homo sapiens
ACHN [6] = experiment: Compound was tested for antitumor activity against ACHN renal cancer cell line(molar concentration leading to 50% net cell death).; conditions: Homo sapiens

Row | Structure (SMILES) | CC50 (786-0 [1]) [µM] | GI50 (786-0 [2]) [µM] | LC50 (concentration causing 50% net cell death) (TK-10 [3]) [µM] | GI50 (TK-10 [4]) [µM] | GI50 (ACHN [5]) [µM] | LC50 (50% net cell death) (ACHN [6]) [µM]
1 | SC1=Nc2ccc(Br)cc2-c2nc(-c3ccccc3)cc(-c3ccccc3)c2C1 | 7.08 | 1.17 | 18.6 | 1.23 | 0.741 | 8.51
2 | SC1=Nc2ccccc2-c2nc(-c3ccccc3)cc(-c3ccc(Br)cc3)c2C1 | 4.47 | 0.631 | 7.76 | 1.78 | 0.871 | 5.89
3 | O=C1Cc2c(-c3ccccc3)cc(-c3ccccc3)nc2-c2ccccc2N1 | > 100 | 4.17 | > 100 | 2.45 | 4.07 | 70.8
4 | O=C1Cc2c(-c3ccc(Br)cc3)cc(-c3ccccc3)nc2-c2ccccc2N1 | 9.55 | 1.62 | 2.24 | 0.186 | 3.98 | 50.1
5 | O=C1Cc2c(-c3ccccc3)cc(-c3ccccc3)nc2-c2cc(Br)ccc2N1 | 4.79 | 0.631 | 9.12 | 0.427 | 1.26 | 15.5
6 | SC1=Nc2ccccc2-c2nc(-c3cccc(Cl)c3)cc(-c3ccccc3)c2C1 | 4.79 | 0.977 | 9.55 | 0.437 | 0.617 | 19.1
7 | O=C1Cc2c(-c3ccccc3)cc(-c3cccc(Cl)c3)nc2-c2ccccc2N1 | 5.37 | 0.977 | 17.4 | 1.48 | 1.15 | 24.5
